Values joined by “and” are separate entries in the source; they are usually repeats but may differ in a detail not shown here. Identical values can stand only once.
Columns and labels:
Test in all cases: Kinase inhibition screen, cell-free 33P ATP assay at 10 μM
Type in all cases: biochemical
[1] = target: 140 purified human kinases (Homo sapiens, UniProt O43353)
Outline: (§1)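 Each complex tested in duplicate at 10 μM; cell-free radiometric assay using ^33P ATP on purified enzymes. Hits mapped by HGNC symbol onto the kinome tree.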

[2] = target: T1, 140 purified human kinases (Homo sapiens, UniProt O43781)
T1 sequence (O43781 1-588): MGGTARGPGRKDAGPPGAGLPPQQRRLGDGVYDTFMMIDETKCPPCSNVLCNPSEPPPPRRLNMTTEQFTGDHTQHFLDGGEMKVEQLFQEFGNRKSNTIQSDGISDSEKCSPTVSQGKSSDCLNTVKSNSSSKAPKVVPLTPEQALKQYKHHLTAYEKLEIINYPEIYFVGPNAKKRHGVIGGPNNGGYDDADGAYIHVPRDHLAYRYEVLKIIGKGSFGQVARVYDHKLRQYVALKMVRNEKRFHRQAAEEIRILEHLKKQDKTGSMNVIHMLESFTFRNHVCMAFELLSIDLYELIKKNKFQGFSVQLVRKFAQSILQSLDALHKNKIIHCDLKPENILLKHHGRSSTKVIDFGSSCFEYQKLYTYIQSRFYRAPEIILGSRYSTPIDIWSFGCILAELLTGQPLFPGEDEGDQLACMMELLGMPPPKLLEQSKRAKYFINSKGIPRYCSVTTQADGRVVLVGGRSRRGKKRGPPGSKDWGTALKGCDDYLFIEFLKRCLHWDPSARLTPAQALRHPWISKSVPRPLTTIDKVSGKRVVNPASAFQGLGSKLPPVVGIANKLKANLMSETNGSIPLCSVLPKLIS
Outline: as §1

[3] = target: 140 purified human kinases (Homo sapiens, UniProt P06239); details: Lck
Outline: as §1

[4] = target: 140 purified human kinases (Homo sapiens, UniProt P17612); details: PKA
Outline: as §1

[5] = target: 140 purified human kinases (Homo sapiens, UniProt P31751); details: PKBb
Outline: as §1

[6] = target: 140 purified human kinases (Homo sapiens, UniProt P53355)
Outline: as §1

[7] = target: T2, 140 purified human kinases (Homo sapiens, UniProt Q15831)
T2 sequence (Q15831 1-433): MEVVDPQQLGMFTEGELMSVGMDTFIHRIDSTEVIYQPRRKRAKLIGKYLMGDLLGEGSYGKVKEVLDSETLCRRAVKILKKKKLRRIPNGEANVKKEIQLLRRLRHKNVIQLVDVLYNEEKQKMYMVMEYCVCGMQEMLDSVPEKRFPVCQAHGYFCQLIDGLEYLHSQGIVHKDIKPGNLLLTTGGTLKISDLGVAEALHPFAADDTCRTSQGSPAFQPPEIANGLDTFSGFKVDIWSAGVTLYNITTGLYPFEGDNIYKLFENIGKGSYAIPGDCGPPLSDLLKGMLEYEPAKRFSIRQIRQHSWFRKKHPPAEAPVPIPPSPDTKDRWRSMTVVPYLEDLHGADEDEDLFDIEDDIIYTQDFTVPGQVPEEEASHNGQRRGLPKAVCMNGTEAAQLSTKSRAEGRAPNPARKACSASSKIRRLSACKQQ
Outline: as §1

[8] = target: 140 purified human kinases (Homo sapiens, UniProt Q96GD4); details: Aurora B
Outline: as §1

[9] = target: T3, 140 purified human kinases (Homo sapiens, UniProt Q9NWZ3)
T3 sequence (Q9NWZ3 1-460): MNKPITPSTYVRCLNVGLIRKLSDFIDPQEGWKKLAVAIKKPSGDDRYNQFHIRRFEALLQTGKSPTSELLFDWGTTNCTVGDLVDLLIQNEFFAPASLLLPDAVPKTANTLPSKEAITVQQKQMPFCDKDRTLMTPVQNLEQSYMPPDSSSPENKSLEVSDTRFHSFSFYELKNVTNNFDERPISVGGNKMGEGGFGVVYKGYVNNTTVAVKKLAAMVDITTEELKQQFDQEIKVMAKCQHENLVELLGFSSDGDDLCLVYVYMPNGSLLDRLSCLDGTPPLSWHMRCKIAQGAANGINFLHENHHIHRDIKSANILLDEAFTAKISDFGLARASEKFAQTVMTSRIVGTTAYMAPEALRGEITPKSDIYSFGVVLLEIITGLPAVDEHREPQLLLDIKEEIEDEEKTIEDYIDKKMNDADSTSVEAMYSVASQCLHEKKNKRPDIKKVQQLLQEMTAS
Outline: as §1

Chain of 140 purified human kinases (Homo sapiens, UniProt P53355) (P53355 whole entry): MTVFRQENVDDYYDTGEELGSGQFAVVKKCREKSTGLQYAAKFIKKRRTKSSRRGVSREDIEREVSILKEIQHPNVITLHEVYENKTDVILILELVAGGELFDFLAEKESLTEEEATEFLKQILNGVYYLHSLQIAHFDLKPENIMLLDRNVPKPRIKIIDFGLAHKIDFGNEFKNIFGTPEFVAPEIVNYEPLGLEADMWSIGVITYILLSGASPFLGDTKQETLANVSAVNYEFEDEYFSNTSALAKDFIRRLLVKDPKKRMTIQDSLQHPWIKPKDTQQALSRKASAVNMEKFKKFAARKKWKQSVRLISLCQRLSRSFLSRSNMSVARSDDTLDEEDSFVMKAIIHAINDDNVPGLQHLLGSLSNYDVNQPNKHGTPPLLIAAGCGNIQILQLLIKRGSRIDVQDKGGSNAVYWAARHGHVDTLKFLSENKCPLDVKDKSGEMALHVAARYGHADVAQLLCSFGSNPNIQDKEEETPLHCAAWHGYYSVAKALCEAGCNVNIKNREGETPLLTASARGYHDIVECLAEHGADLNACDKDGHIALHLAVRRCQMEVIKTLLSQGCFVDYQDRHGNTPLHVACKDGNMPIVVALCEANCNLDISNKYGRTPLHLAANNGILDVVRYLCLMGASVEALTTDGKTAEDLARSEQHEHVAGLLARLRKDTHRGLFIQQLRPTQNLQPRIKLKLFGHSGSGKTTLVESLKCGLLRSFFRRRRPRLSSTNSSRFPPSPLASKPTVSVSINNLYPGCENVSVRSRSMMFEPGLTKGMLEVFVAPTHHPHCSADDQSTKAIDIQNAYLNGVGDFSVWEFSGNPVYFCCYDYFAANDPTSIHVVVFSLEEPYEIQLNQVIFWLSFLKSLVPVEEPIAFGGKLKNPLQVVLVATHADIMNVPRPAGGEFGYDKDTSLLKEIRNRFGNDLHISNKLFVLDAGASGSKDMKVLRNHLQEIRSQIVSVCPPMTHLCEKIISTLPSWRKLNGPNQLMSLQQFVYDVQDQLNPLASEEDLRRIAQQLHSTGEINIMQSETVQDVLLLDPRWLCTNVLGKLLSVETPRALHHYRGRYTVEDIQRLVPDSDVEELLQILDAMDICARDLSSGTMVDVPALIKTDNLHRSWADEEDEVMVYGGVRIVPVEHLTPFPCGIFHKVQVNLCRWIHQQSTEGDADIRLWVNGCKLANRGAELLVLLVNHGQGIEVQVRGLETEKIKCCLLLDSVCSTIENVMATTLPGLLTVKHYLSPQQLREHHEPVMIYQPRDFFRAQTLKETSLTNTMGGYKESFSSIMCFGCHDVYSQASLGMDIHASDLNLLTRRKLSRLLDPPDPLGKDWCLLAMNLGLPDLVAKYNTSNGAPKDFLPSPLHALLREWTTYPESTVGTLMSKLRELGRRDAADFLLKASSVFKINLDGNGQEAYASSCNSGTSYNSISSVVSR
Chain of 140 purified human kinases (Homo sapiens, UniProt P31751) (P31751 whole entry): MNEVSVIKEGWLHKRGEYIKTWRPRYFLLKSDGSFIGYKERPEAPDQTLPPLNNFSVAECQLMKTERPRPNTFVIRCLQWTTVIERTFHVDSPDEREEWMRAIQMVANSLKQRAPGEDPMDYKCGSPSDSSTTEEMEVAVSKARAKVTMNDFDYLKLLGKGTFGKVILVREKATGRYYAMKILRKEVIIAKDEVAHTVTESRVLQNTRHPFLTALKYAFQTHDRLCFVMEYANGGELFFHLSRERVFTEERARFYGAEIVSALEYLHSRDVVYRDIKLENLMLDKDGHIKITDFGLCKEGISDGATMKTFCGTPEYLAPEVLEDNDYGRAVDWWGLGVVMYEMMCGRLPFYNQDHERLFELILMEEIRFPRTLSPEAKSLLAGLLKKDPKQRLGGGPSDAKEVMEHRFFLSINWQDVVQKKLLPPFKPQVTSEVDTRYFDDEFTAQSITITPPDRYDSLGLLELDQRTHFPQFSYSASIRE
Chain of 140 purified human kinases (Homo sapiens, UniProt O43353) (O43353 whole entry): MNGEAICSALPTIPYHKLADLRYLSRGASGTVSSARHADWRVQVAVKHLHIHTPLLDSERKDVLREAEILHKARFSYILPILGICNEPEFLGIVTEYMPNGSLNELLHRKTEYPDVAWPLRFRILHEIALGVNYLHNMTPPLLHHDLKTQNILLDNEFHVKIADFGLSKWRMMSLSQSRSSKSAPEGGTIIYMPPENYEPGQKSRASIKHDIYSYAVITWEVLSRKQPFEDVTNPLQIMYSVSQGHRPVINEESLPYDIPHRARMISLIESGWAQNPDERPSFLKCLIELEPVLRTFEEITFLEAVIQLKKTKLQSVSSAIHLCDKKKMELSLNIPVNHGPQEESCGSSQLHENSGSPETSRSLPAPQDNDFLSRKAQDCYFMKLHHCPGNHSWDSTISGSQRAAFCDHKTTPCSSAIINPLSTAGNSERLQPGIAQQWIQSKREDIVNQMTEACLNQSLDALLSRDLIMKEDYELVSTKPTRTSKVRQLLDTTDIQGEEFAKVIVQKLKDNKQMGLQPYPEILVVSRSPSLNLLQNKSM
Chain of 140 purified human kinases (Homo sapiens, UniProt Q96GD4) (Q96GD4 whole entry): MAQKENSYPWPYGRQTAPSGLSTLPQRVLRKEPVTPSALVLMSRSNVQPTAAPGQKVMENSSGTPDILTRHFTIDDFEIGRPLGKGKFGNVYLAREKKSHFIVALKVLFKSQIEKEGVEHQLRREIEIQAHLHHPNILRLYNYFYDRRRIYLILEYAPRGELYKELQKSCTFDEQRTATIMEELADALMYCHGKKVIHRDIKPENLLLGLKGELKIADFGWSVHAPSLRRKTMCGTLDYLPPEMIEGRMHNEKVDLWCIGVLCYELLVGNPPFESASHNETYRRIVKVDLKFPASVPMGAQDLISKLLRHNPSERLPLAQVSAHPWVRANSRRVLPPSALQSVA
Chain of 140 purified human kinases (Homo sapiens, UniProt P06239) (P06239 whole entry): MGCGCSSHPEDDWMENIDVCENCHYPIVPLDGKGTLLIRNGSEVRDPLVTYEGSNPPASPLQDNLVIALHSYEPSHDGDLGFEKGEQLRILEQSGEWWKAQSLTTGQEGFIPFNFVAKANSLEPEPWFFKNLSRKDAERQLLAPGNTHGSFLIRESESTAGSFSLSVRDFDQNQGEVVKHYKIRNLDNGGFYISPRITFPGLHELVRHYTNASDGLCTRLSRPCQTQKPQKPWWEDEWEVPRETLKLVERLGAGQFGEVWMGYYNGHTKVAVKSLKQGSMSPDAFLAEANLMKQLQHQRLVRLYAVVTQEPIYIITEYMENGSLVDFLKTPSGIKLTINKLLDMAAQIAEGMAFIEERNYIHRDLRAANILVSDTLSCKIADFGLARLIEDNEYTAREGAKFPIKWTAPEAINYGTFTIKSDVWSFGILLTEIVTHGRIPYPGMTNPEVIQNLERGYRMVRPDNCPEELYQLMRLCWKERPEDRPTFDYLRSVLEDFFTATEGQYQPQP

[Cu+2].[Cu+2].[Cu+2].c1ccc(-c2csc(NCCN(CCNc3nc(-c4ccccn4)cs3)CCNc3nc(-c4ccccn4)cs3)n2)nc1.c1ccc(-c2csc(NCCN(CCNc3nc(-c4ccccn4)cs3)CCNc3nc(-c4ccccn4)cs3)n2)nc1 [[L2Cu3]6+]
% Inhibition Run 1 ([1]; RIPK2): 16.3% | % Inhibition Run 2 ([1]; RIPK2): 2.5% | % Inhibition, Mean ([1]; RIPK2): 9% | mean % activity ([1]; RIPK2): 91% | % activity ([1]; RIPK2, Run 1): 83.7% | % activity ([1]; RIPK2, Run 2): 97.5% | % Inhibition Run 1 ([2]; DYRK3): 42.6% | % Inhibition Run 2 ([2]; DYRK3): 40.9% | % Inhibition, Mean ([2]; DYRK3): 42% | mean % activity ([2]; DYRK3): 58% | % activity ([2]; DYRK3, Run 1): 57.4% | % activity ([2]; DYRK3, Run 2): 59.1% | % Inhibition Run 1 [3]: 64.9% | % Inhibition Run 2 [3]: 65.8% | % Inhibition, Mean [3]: 65% | mean % activity [3]: 35% | % activity ([3]; Run 1): 35.1% | % activity ([3]; Run 2): 34.2% | % Inhibition Run 1 [4]: 46.4% | % Inhibition Run 2 [4]: 48.2% | % Inhibition, Mean [4]: 47% | mean % activity [4]: 53% | % activity ([4]; Run 1): 53.6% | % activity ([4]; Run 2): 51.8% | % Inhibition Run 1 [5]: 91.7% | % Inhibition Run 2 [5]: 93.5% | % Inhibition, Mean [5]: 93% | mean % activity [5]: 7.4% | % activity ([5]; Run 1): 8.3% | % activity ([5]; Run 2): 6.5% | % Activity inhibition Mean ([5]; 10 µM): 92.6% | % Activity inhibition Run 1 ([5]; 10 µM): 91.7% | % Activity inhibition Run 2 ([5]; 10 µM): 93.5% | % Activity remaining Run 1 ([5]; 10 µM): 8.30% | % Activity remaining Run 2 ([5]; 10 µM): 6.50% | % Activation, Mean value ([6]; DAPK1): 1.5% | % Inhibition Run 1 ([6]; DAPK1): 6.2% | % Inhibition Run 2 ([6]; DAPK1): -9.2% | % Inhibition, Mean ([6]; DAPK1): -1.5% | mean % activity ([6]; DAPK1): 102% | % activity ([6]; DAPK1, Run 1): 93.8% | % activity ([6]; DAPK1, Run 2): 109.2% | % Inhibition Run 1 ([7]; LKB1): 22.9% | % Inhibition Run 2 ([7]; LKB1): 29.1% | % Inhibition, Mean ([7]; LKB1): 26% | mean % activity ([7]; LKB1): 74% | % activity ([7]; LKB1, Run 1): 77.1% | % activity ([7]; LKB1, Run 2): 70.9% | % Inhibition Run 1 [8]: 92.4% | % Inhibition Run 2 [8]: 91.3% | % Inhibition, Mean [8]: 92% | mean % activity [8]: 8% | % activity ([8]; Run 1): 7.6% | % activity ([8]; Run 2): 8.7% | % Activity inhibition Mean ([8]; 10 µM): 91.9% | % Activity inhibition Run 1 ([8]; 10 µM): 92.4% | % Activity inhibition Run 2 ([8]; 10 µM): 91.3% | % Activity remaining Run 1 ([8]; 10 µM): 7.60% | % Activity remaining Run 2 ([8]; 10 µM): 8.70% | % Inhibition Run 1 ([9]; IRAK4): 53.9% | % Inhibition Run 2 ([9]; IRAK4): 65.2% | % Inhibition, Mean ([9]; IRAK4): 60% | mean % activity ([9]; IRAK4): 40% | % activity ([9]; IRAK4, Run 1): 46.1% | % activity ([9]; IRAK4, Run 2): 34.8%

CC(=O)[O-].CC(=O)[O-].CC(=O)[O-].CC(=O)[O-].CC(=O)[O-].CC(=O)[O-].[Zn+2].[Zn+2].[Zn+2].c1ccc(-c2csc(NCCN(CCNc3nc(-c4ccccn4)cs3)CCNc3nc(-c4ccccn4)cs3)n2)nc1.c1ccc(-c2csc(NCCN(CCNc3nc(-c4ccccn4)cs3)CCNc3nc(-c4ccccn4)cs3)n2)nc1 [[L2Zn3]6+]
% Inhibition, Mean ([1]; RIPK2): 5.55% | % Inhibition, Run 1 / Run 2 ([1]; RIPK2): 8% and 3% | mean % activity ([1]; RIPK2): 94% | % activity ([1]; RIPK2, duplicate runs): 92% and 97% | % Inhibition, Mean ([2]; DYRK3): 30% | % Inhibition, Run 1 / Run 2 ([2]; DYRK3): 32% and 28% | mean % activity ([2]; DYRK3): 70% | % activity ([2]; DYRK3, duplicate runs): 68% and 72% | % Inhibition, Mean [3]: 44% | % Inhibition, Run 1 / Run 2 [3]: 51% and 36% | mean % activity [3]: 56% | % activity ([3]; duplicate runs): 49% and 64% | % Activation, Mean value [4]: 7% | % Inhibition, Mean [4]: -7% | mean % activity [4]: 107% | % activity ([4]; duplicate runs): 101% and 114% | % Inhibition, Mean [5]: 65% | % Inhibition, Run 1 / Run 2 [5]: 76% and 55% | mean % activity [5]: 35% | % activity ([5]; duplicate runs): 24% and 45% | % Activation, Mean value ([6]; DAPK1): 16% | % Inhibition, Mean ([6]; DAPK1): -16% | % Inhibition, Run 1 / Run 2 ([6]; DAPK1): -12% and -21% | mean % activity ([6]; DAPK1): 116% | % Activity Run 1 ([6]; DAPK1, 10 µM): 112.0% | % Activity Run 2 ([6]; DAPK1, 10 µM): 121.0% | % activity ([6]; DAPK1, duplicate runs): 112% and 121% | % Activation, Mean value ([7]; LKB1): 9% | % Inhibition, Mean ([7]; LKB1): -9% | mean % activity ([7]; LKB1): 109% | % activity ([7]; LKB1, duplicate runs): 101% and 116% | % Inhibition, Mean [8]: 50% | % Inhibition, Run 1 / Run 2 [8]: 54% and 46% | mean % activity [8]: 50% | % activity ([8]; duplicate runs): 46% and 54% | % Inhibition, Mean ([9]; IRAK4): 10% | % Inhibition, Run 1 / Run 2 ([9]; IRAK4): 13% and 7% | mean % activity ([9]; IRAK4): 90% | % activity ([9]; IRAK4, duplicate runs): 87% and 93%
